According to patent publication US6492426B1, “Use of 1-aminoindan derivatives for treatment of mania in bipolar mood disorder” (priority 1999, dated 2002):
“And” between values parts separate entries of the source, which are not always exact repeats. Identical values can stand only once.

Tested on: amphetamine-induced hyperactivity in rats
Assay: amphetamine-induced hyperactivity model of mania in rats (automated activity monitors)
Assay type: in vivo, Sprague Dawley rats
Experimental: Evaluation of possible anti-bipolar effects of compounds 1 to 4 was effected by an amphetamine-induced hyperactivity model of mania in rats. Each of the compounds was examined in a separate experiment and compared with a control group, treated with the same dose of amphetamine.
Twenty Sprague Dawley rats, weighing 200-250 g served for each of the four (4) experiments. Rats were housed in a colony room with constant temperature (22° C.), 12 h light/dark cycle and free access to food and water. Each experiment consisted of two groups (n=10 per group), one group was treated with the compound (1 to 4) and the other with vehicle solution. In experiments 1-4, the drugs were administered intraperitoneally (IP). All experimental procedures were conducted during the light phase of the light/dark cycle.
Amphetamine (0.5 mg/kg, sub-cutaneous (s.c.), diluted in de-ionized water) was injected into all rats (both groups of each experiment) immediately prior to behavioral testing. In experiments 1 to 4, compounds (R)-N-acetyl aminoindan (1); (S)-N-indanyl glycinamide HCl (2); (rac)-N-(2-aminoacetyl)-1-aminoindan HCl (3); and (S)-N-formyl aminoindan (4) were injected twice intraperitoneally (IP) at a dose of 75 mg/kg, 19 h and 3 h prior to behavioral testing in experiments. All compounds were suspended in a 5% methyl cellulose solution. The vehicle solution was administered to the control animals.
Immediately after amphetamine injection, rats were placed in automated activity monitors and their activity levels were scored every 10 minutes in the 30 minute time span for experiments 1 to 4. Activity scores included separate measurements of horizontal (locomotion) and of vertical (rearing) activity.
Repeated ANOVA measurements were used to examine the effects of compounds 1 to 4 on locomotor and on vertical activity. One factor measured the treatment of the rats using compounds 1 to 4 or the control vehicle; the repeated measure factor was time (three 10 minute intervals). Post hoc LSD (least significant difference) tests were used to determine whether significant differences occurred in different time periods, where relevant.

[1] = group mean n=10, 75 mg/kg IP twice, amphetamine 0.5 mg/kg s.c., cumulative to 20 min
[2] = group mean n=10, 75 mg/kg IP twice, amphetamine 0.5 mg/kg s.c., cumulative to 30 min
[3] = group mean n=10, 75 mg/kg IP twice, amphetamine 0.5 mg/kg s.c., first 10 min
[4] = group mean n=10, 75 mg/kg IP twice, amphetamine 0.5 mg/kg s.c., second 10 min interval
[5] = group mean n=10, 75 mg/kg IP twice, amphetamine 0.5 mg/kg s.c., third 10 min interval
[6] = individual rat, 75 mg/kg IP twice, amphetamine 0.5 mg/kg s.c., cumulative to 20 min
[7] = individual rat, 75 mg/kg IP twice, amphetamine 0.5 mg/kg s.c., cumulative to 30 min
[8] = individual rat, 75 mg/kg IP twice, amphetamine 0.5 mg/kg s.c., non cumulative, second 10 min interval
[9] = individual rat, 75 mg/kg IP twice, amphetamine 0.5 mg/kg s.c., non cumulative, third 10 min interval

How did the “Effect on amphetamine-induced locomotor activity versus control (ANOVA)” value (75 mg/kg IP, 19 h and 3 h before testing, result in words) turn out when `O=CN[C@H]1CCc2ccccc21` [Compound 4, (S)-N-formyl aminoindan] was run?
Its value is “significantly reduced amphetamine-induced locomotor activity”.

And the “Effect on activity levels of rats (summary)” value (75 mg/kg IP, amphetamine-treated rats, result in words)?
The value was “reduced the activity levels”.

What about the “Anti-manic potential from the tested model (conclusion)” value (based on the tested model and doses, result in words) of the same compound?
The value was “show anti-manic potential”.

What about the “Locomotor activity, 20 min, mean” value [1] of the same compound?
Its value is 1035 counts.

What about the “Vertical activity, 20 min, mean” value [1] of the same compound?
The value was 24 counts.

What about the “Locomotor activity, 30 min, mean” value [2] of the same compound?
Its value is 1523 counts.

And the “Vertical activity, 30 min, mean” value [2]?
Its value is 35 counts.

What about the “Locomotor activity, 10 min, mean” value [3] of the same compound?
The value was 553 counts.

And the “Vertical activity, 10 min, mean” value [3]?
The value was 17 counts.

What about the “Locomotor activity, 20-10 min, mean” value [4] of the same compound?
The value was 482 counts.

And the “Vertical activity, 20-10 min, mean” value [4]?
The value was 7 counts.

And the “Locomotor activity, 30-20 min, mean” value [5]?
The value was 488 counts.

And the “Vertical activity, 30-20 min, mean” value [5]?
The value was 11 counts.

What about the “Locomotor activity, 10 min” value (individual rat, 75 mg/kg IP twice, 19 h and 3 h before testing, amphetamine 0.5 mg/kg s.c., first 10 min) of the same compound?
The value was 453 counts and 589 counts and 482 counts and 508 counts and 596 counts and 558 counts and 481 counts and 551 counts and 691 counts and 619 counts.

And the “Locomotor activity, 20 min” value [6]?
The value was 919 counts and 1099 counts and 896 counts and 840 counts and 1179 counts and 1113 counts and 923 counts and 988 counts and 1306 counts and 1088 counts.

And the “Vertical activity, 20 min” value [6]?
Its value is 10 counts and 40 counts and 21 counts and 7 counts and 30 counts and 17 counts and 27 counts and 4 counts and 37 counts and 43 counts.

What about the “Locomotor activity, 30 min” value [7] of the same compound?
The value was 1371 counts and 1632 counts and 1253 counts and 1031 counts and 1789 counts and 1730 counts and 1422 counts (2×) and 2061 counts and 1519 counts.

What about the “Vertical activity, 30 min” value [7] of the same compound?
The value was 15 counts and 55 counts and 26 counts and 7 counts and 30 counts and 31 counts and 38 counts and 14 counts and 83 counts and 46 counts.

What about the “Vertical activity, 10 min” value (individual rat, 75 mg/kg IP twice, amphetamine 0.5 mg/kg s.c., first 10 min) of the same compound?
Its value is 9 counts and 30 counts (2×) and 13 counts and 7 counts and 12 counts (2×) and 21 counts and 3 counts and 34 counts.

And the “Locomotor activity, 20-10 min” value [8]?
The value was 466 counts and 510 counts and 414 counts and 332 counts and 583 counts and 555 counts and 442 counts and 437 counts and 615 counts and 469 counts.

What about the “Vertical activity, 20-10 min” value [8] of the same compound?
The value was 1 counts (2×) and 10 counts and 8 counts and 0 counts and 18 counts and 5 counts and 6 counts and 3 counts and 13 counts.

And the “Locomotor activity, 30-20 min” value [9]?
The value was 452 counts and 533 counts and 357 counts and 191 counts and 610 counts and 617 counts and 499 counts and 434 counts and 755 counts and 431 counts.

And the “Vertical activity, 30-20 min” value [9]?
The value was 5 counts (2×) and 15 counts and 0 counts (2×) and 14 counts and 11 counts and 10 counts and 46 counts and 3 counts.
